# Laboratory results reported in patent US20260174766A1, “COMBINATION OF MENIN INHIBITOR(S) AND IMMUNOPROTEASOME INHIBITOR(S) FOR TREATMENT OF LEUKEMIA” (Medizinische Hochschule Hannover, priority 2022, published 2026).
# Legend:
# MOLM-13 and ML-2 cells = assay: Global transcriptome analysis by RNA-sequencing; type: cell-based, human; conditions: 100 nM PR-957, 72 hours, FIG. 3A
# From the text: Cells were harvested and resuspended in TRIzol™, and RNA was extracted using the TRIzol-Chloroform method (Heidel et al., 2013). RNA-seq libraries were generated using SMART-Seq v4 Ultra Low Input RNA Kit (Takara Bio USA Inc., Mountain View, CA, USA) followed by Nextera XT (Illumina, San Diego, CA, USA).
# For analysis, 50 bp single-end reads (Illumina) were aligned to reference genome mm10 and gtf.-transcriptome annotation release M7 (GENCODE) using STAR two-pass mode (Dobin et al., 2013).
# GENCODE M7 gtf.-file was used for quantification, performed by STAR, followed by normalization, transformation and differential gene expression analysis in DEseq2 (Love et al., 2014). GSEA was carried out on a public server “Gene Pattern” of Broad Institute (Reich et al., 2006). For analysis of the genetic CRISPRCas9 screen, next generation sequencing was performed on an Illumina NextSeq platform (75 bp, single reads) aiming for a minimum of 30Mio reads per sample.
# Therefore, it was sought to determine to which extent the inhibition of PSMB8/LMP7 also contributes to the transcriptional regulation of human MLL-target genes. […] This cell line was selected for its sensitivity to PR-957 (FIG. 3D) and ability to be transduced among the MLLr cell lines evaluated above. […]
# [1] = test system: MLLr leukemic cells (MLL-AF9 and MLL-AF4 PDX); assay: Patient derived xenografts (MLL-AF9, MLL-AF4) in NSGW41 mice treated with PR-957; type: in vivo, mouse
# From the text: NOD.Cg-Prkdc^scid Il2rg^tm1Wjl Tg(CMV-IL3, CSF2, KITLG) 1Eav/MloySzJ (NSGS), NOD.Cg-Prkdc^scid Il2rg^tm1Wjl/SzJ (NSG) or NOD.Cg-Prkdc^scid Il2rg^tm1Wjl/RJ (NXG) were obtained from The Jackson Laboratory (Bar Harbor, ME, USA). 8-12-weeks old adult mice (male and female) were irradiated with 2 Gy (single dose) before transplantation. 1×10^5 MOLM-13, ML-2 or MV-4; 11 cells transduced with either of two PSMB8/LMP7 shRNAs or non-targeting control; with a pLEX vector containing the sequence of BASP1 or an empty vector; or treated ex vivo with the indicated inhibitors were injected intravenously via the tail vein. For patient derived xenograft experiments (PDX) of human MLLr leukemia we used an improved model for human HSC transplantation and analysis, that has been developed from immune-deficient mouse strains containing Kit mutations: NOD.Cg-^KitW-41J Prkdc^scid Il2rg^tm1Wjl/WaskJ (NSGW41) (Cosgun et al., 2014). These mice can be engrafted without prior conditioning and therefore maintain an intact niche and microenvironment. Human myeloid engraftment (hCD45+ CD13+) was analyzed by flow cytometry.
# In order to assess for the functional relevance of immunoproteasome component LMP7/PSMB8 in human AML, genetic inactivation of LMP7/PSMB8 by RNAi was performed with two independent shRNAs against LMP7/PSMB8 (shPSMB8-3 and shPSMB8-2) compared to non-targeting control (shNT) in MLLr cell lines. […] However, induction of apoptosis could only be detected in less than 40% of cells with no significant variability between MLLr cell lines and the individual shRNAs. Efficient LMP7/PSMB8 depletion was confirmed by Western blotting (FIG. 1E). […] Following xenotransplantation, the relative abundance of human AML cells in the murine peripheral blood was measured over time by flow cytometry, and PR-957 treatment was initiated once hCD45+ AML cells constituted 0.1%-0.5% of PB cells. […]
compound,measurement,setting,value
"COc1ccc(C[C@H](NC(=O)[C@H](C)NC(=O)CN2CCOCC2)C(=O)N[C@@H](Cc2ccccc2)C(=O)[C@]2(C)CO2)cc1 [PR-957, (2S)-3-(4-methoxyphenyl)-N-[(2S)-1-[(2S)-2-methyloxiran-2-yl]-1-oxo-3-phenylpropan-2-yl]-2-[[(2S)-2-[(2-morpholin-4-ylacetyl)amino]propanoyl]amino]propanamide]",genes regulated in both cell lines upon treatment (overlap),MOLM-13 and ML-2 cells,457 genes
same,antileukemic activity in PDX models,"[1]; 3 mg/KG i.v. 5 consecutive days, every 2 weeks, escalated to 6 and 10 mg/KG, NSGW41 mice",potent antileukemic activity
same,cell morphology of AML cells (cytospin analysis),"[1]; PDX after onset of AML, FIG. 1K",signs of cellular differentiation
same,survival and disease penetrance in PDX,"[1]; over a period of 100 days, FIG. 1J",improved survival and reduced disease penetrance
